According to PMC11648915, “Identification and development of TRPM4 antagonists to counteract neuronal excitotoxicity” (iScience, 2024):
Entries after “also recorded” stand apart in the source; their conditions may differ. Read-outs that look alike come from different tables or passages of the source.

Columns and labels:
mouse TRPM4 = biological target: T1, mouse TRPM4 (Mus musculus, UniProt Q7TN37); experiment: Inside-out patch clamp, mouse TRPM4; type: cell-based; conditions: inside-out patch clamp configuration
T1 construct: Human TRPM4 (UniProtKB: Q8TD43-1) and mouse Trpm4 (UniProtKB: Q7TN37-1) were amplified via PCR; eGFP (C); expressed in transfected cells
T1 sequence (Q7TN37 whole entry): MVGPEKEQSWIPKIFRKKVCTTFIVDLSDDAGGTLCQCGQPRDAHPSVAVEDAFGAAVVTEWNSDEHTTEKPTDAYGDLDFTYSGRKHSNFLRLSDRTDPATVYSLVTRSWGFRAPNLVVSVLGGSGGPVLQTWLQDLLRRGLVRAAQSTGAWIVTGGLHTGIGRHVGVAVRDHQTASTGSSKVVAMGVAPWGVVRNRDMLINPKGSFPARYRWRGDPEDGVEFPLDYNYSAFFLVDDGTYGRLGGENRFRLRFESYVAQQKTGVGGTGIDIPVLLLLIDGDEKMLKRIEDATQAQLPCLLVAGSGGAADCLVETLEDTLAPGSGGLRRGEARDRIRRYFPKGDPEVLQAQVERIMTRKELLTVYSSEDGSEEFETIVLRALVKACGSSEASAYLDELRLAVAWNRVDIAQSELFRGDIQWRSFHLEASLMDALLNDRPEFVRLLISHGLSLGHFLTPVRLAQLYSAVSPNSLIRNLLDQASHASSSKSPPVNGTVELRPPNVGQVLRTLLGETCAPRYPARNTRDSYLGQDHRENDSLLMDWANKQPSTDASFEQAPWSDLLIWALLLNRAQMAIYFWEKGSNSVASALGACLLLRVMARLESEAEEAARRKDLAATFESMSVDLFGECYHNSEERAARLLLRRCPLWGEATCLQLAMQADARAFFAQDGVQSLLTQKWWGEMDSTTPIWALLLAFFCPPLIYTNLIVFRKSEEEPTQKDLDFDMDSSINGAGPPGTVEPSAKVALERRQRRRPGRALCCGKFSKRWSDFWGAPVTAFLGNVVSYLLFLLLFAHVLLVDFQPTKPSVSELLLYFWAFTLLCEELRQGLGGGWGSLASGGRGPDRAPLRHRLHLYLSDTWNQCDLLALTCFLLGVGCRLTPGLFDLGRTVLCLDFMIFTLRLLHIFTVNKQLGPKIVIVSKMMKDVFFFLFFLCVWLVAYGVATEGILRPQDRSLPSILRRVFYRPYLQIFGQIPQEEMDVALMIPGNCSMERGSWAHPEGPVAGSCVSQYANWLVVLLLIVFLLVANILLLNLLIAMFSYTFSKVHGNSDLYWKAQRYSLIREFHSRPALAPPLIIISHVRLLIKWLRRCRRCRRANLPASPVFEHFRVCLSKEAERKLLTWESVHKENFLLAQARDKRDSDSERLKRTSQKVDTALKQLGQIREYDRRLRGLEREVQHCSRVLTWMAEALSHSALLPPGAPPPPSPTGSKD

[1] = tested on: broad panel of receptors, enzymes, and ion channels; experiment: SafetyScreen44 in vitro pharmacology panel (whole panel); type: binding; conditions: SafetyScreen44, 5 μM; active = inhibition above 50%
Experimental: We next used in vitro assays to test absorption, distribution, metabolism, excretion and toxicity (ADMET) parameters for selected compounds. We assessed compound absorption using parallel artificial membrane permeability (PAMPA) and Caco-2 cell permeability assays (cut-off criterion >2 × 10^−6 cm s^−1). Compound toxicity was evaluated by measuring inhibition of cytochrome P450 enzymes (CYP), the potassium channel human Ether-a-go-go Related Gene (hERG), and TRPM5, with all parameters meeting acceptable criteria. […] To assess potential off-target activity of our compounds that could be relevant for safety in humans, we conducted comprehensive in vitro pharmacology using the commercially available and widely used SafetyScreen44 interaction panel[60] covering eight protein families.
For in vitro pharmacological profiling and determination of off target effects compound were screened at a 5 μM in duplicate for their potential to bind to a broad panel of receptors, enzymes, and ion channels on a commercially available platform (Safetyscreen 44 Panel; Eurofins Cerep, Le Bois l'Evêque, B.P. 30001, 86 600 Celle l'Evescault, France), Study ID FR095-0009609).

[2] = tested on: hsTRPM4 L907A, S924A and L907A/S924A mutants; experiment: Whole-cell patch clamp of wild-type and binding-site mutant hsTRPM4; conditions: whole-cell voltage clamp, HEK293T
Excerpt: (§1) Initially, we assessed the basic properties of the hsTRPM4 mutants using whole-cell patch clamp electrophysiology.

[3] = biological target: hsTRPM4 L907A, S924A and L907A/S924A mutants (Homo sapiens, UniProt Q8TD43, L907A/S924A); experiment: as above; conditions: whole-cell voltage clamp
hsTRPM4 L907A, S924A and L907A/S924A mutants (Homo sapiens, UniProt Q8TD43, L907A/S924A), sequence (Q8TD43 whole entry L907A/S924A): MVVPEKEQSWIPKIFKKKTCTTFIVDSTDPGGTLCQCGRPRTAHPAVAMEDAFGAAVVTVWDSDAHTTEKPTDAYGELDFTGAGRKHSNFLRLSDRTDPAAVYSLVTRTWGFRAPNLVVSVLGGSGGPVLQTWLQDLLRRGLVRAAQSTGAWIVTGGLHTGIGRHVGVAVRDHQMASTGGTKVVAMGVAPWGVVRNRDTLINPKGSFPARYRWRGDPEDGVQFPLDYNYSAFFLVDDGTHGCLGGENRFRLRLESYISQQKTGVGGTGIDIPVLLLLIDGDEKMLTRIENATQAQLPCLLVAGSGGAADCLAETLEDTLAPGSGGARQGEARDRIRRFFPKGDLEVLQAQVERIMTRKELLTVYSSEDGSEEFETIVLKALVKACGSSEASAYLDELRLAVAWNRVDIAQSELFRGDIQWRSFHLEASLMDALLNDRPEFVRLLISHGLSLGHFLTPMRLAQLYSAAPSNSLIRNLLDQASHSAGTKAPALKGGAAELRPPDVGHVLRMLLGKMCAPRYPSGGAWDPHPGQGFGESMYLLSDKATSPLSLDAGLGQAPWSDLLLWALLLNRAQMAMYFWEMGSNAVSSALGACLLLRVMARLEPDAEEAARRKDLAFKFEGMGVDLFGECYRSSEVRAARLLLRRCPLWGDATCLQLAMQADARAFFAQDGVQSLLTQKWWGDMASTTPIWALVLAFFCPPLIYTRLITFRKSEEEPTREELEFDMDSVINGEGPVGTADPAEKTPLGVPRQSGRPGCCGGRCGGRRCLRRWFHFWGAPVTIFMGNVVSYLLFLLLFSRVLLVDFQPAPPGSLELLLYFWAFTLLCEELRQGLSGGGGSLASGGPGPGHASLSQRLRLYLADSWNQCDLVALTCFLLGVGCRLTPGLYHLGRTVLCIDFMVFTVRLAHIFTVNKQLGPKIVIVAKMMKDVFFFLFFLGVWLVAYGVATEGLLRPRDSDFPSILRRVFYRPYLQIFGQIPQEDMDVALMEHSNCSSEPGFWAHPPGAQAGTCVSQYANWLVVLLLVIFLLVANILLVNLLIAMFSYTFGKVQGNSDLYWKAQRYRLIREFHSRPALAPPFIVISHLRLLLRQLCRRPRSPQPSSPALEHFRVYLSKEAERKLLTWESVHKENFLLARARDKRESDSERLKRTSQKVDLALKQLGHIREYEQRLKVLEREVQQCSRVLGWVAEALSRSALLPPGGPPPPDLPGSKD
Excerpt: as §1

[4] = In vivo pharmacokinetics after single i.p. or i.v. dose; conditions: female, C57BL/6J, mouse
Experimental: Next, to assess in vivo availability of the Series 1–3 compounds, we evaluated drug metabolism and pharmacokinetics (DMPK). We measured compound concentrations in plasma, heart, and brain at several time points after intraperitoneal (i.p.) or intravenous (i.v.) single-dose injections.
Half-life and bioavailability were calculated by noncompartmental analysis using the R package PK[84] (v1.3-6).

human TRPM4 [5] = biological target: T2, human TRPM4 (Homo sapiens, UniProt Q8TD43); experiment: Inside-out patch clamp, human TRPM4; type: cell-based; set-up: Human TRPM4 (UniProtKB: Q8TD43-1) and mouse Trpm4 (UniProtKB: Q7TN37-1) were amplified via PCR; expressed in transfected cells; conditions: inside-out patch clamp configuration
T2 sequence (Q8TD43 whole entry): as the sequence (Q8TD43 whole entry L907A/S924A) above, with A907L, A924S counted along it
Experimental: Patch clamp recordings were conducted using an EPC10 patch clamp amplifier and Patchmaster software (HEKA, Germany). An Ag/AgCl wire served as the reference electrode in all experiments. […] Liquid junction potential was compensated before achieving gigaseal formation. All experiments were conducted at room temperature. Whole-cell currents were recorded in transiently transfected HEK293 cells expressing either wildtype human TRPM4, TRPM4-L907A, or TRPM4-S924A. Recordings involved a 400 ms increasing voltage ramp from –100 mV to +100 mV, initiated from a holding potential of 0 mV. The interval between each sweep was 2 seconds, with data sampled at 5 kHz. […] To identify TRPM4 currents, extracellular Na^+ was replaced with equimolar NMDG^+. […] Similar to whole-cell recordings, a 400 ms increasing voltage ramp from –100 mV to +100 mV was applied from a holding potential of 0 mV. The interval between sweeps was 2 seconds, and data were sampled at 5 kHz. […] TRPM4 currents were activated by 500 μM CaCl2 and deactivated by 10 mM EGTA, both added to the intracellular solution. Ca^2+ activation curves were fitted using a likelihood maximization algorithm to estimate the parameters for the sigmoidal fitting curves y-maximum, slope and midpoint as part of the R package sicegar (V0.2.4).

[6] = tested on: primary mouse neuronal cultures; experiment: Glutamate-induced excitotoxicity assay (RealTime-Glo viability); type: cell-based; conditions: 5 μM
Experimental: To evaluate the in vitro efficacy of our developed compounds, we employed primary mouse neuronal cultures (PNCs) and conducted glutamate-induced excitotoxicity assays. Cultures were pre-treated with respective Series 1 and Series 3 compounds before glutamate exposure, and neuronal viability was assessed 15 h post-stimulation with glutamate.
Figure 3 Neuroprotective in vitro evaluation and in vivo pharmacokinetics (A) In vitro evaluation of compound activity on glutamate-induced excitotoxicity in mature primary neuronal cultures. Neuronal cultures were treated with 5 μM of the specified compound or vehicle control 5 h prior to glutamate stimulation, assessing compound rescue activity and toxicity relative to minimal (Vehicle +0 μM Glu) and maximal (Vehicle +50 μM Glu) excitotoxicity. Time course of a representative compound with virtual endpoint at 15 h post stimulation and assay window definition (left). Toxicity of compound treated cultures with and without glutamate stimulation (right). Data are represented as mean and 95% confidence interval; n ≥ 4; ∗p < 0.05, ∗∗p < 0.01, ∗∗∗p < 0.001; One-sample Wilcoxon signed-rank test. […] Mitochondrial membrane potential was measured by the mean fluorescence intensity of TMRE normalized to MitoTracker. Data are represented as mean ± SEM; n = 5; paired t-test. (C) In vivo pharmacokinetics of four selected compounds. Time course of compound concentration in the brain, heart, and plasma after a single dose via intraperitoneal (i.p.) or intravenous (i.v.) application. Data are represented as mean ± SEM. Half-life estimates by non-compartmental analysis are shown as vertical line and IC50 value as dashed horizontal line. (D) Compound concentration in the brain relative to respective IC50 concentrations after a single dose via intra-peritoneal or intra-venous routes. Also see Figure S6.
Excitotoxicity assays were performed using primary mouse neuronal cultures between 14 and 17 days in vitro (DIV). Cell viability was measured using RealTime-Glo MT Cell Viability Assay (Promega, catalog no. G9711) according to the manufacture protocol. Compounds were co-administered with RealTime-Glo reagents, and luciferase measurements were conducted using the Tecan-Spark M10 microplate reader with environmental control set to 37°C and 5% CO2. Neuronal cultures were stimulated with either glutamate or vehicle five hours after compound application and monitored for an additional 20 hours. To adjust for inter-well variability, arbitrary light units were normalized to a steady signal prior to glutamate addition for each well. Toxicity was calculated relative to the minimal cell viability at 15 hours post glutamate stimulation and cell viability of the PBS vehicle control.

[7] = tested on: primary mouse neuronal cultures; experiment: TMRE assay of mitochondrial membrane potential after glutamate; type: cell-based; conditions: 50 μM glutamate for 2 h, compound 30 min before
Experimental: We assessed its ability to inhibit the deterioration of mitochondrial membrane potential (ΔΨm) in response to glutamate-induced excitotoxicity. The ratio between the ΔΨm-dependent dye tetramethylrhodamine ethyl ester (TMRE) and the mitochondrial dye MitoTracker was quantified for this purpose.
Subsequently 50 μM glutamate was applied for in total 2 hours. Then, 20 nM TMRE dye (Abcam, ab113852), 500 nM MitoTracker dye (ThermoFisher, M7512), and 1 μM Hoechst 33342 were added after 1.5 hours glutamate stimulation for 30 minutes. Afterwards cells were washed two times in pre-warmed medium and were imaged immediately in preconditioned medium using a confocal microscope (Zeiss, LSM700) with 20-fold magnification and controlled atmosphere conditions (37°C, 5% CO2). Imaging time was less than 10 minutes per condition. We quantified the total MFI of the MitoTracker and TMRE dyes per cell. At least 50 cells per condition were quantified and the mean ratios of TMRE to Mitotracker per independent experiments were reported.

human TRPM4 [8] = biological target: T2, human TRPM4; experiment: QPatch automated patch clamp on TRPM4-expressing HEK293 cells; type: cell-based; conditions: hsTRPM4-expressing HEK293 cells
Experimental: QPatchHTX, an automated electrophysiology platform, was used in single hole mode. One day before use human TRPM4- or TRPM5-expressing HEK293 cells were seeded in a T75 flask at a density of 53k cells per cm^2 and at passages < 23. […] The extracellular solution was (in mM): CaCl2 (7), MgCl2 (2), KCl (5), HEPES (10), NaCl (70), NMDG (70); pH 7.4 with NaOH. The intracellular solution was (in mM): HEPES (10), NMDG (100), NaCl (50), EGTA (20), MgCl2 (1), CaCl2 (21); pH 7.2 with HCl. […] This protocol was repeated every 7 seconds. […] FFA was used as reference compound and applied cumulatively with each concentration incubating at a minimum of 20 voltage protocol runs (140 seconds) with the current after addition of FFA being calculated as full block. […] Each compound was measured at least 3 time independently.

half-life ([4]; brain, ip, read-out: Brain half-life (converted)) [h]	half-life ([4]; brain, iv, read-out: Brain half-life (converted)) [h]	half-life ([4]; heart, ip, read-out: Heart half-life (converted)) [h]	half-life ([4]; heart, iv, read-out: Heart half-life (converted)) [h]	half-life ([4]; plasma, ip, read-out: Plasma half-life (converted)) [h]	half-life ([4]; plasma, iv, read-out: Plasma half-life (converted)) [h]	Compound	Activity on mouse TRPM4 (mouse TRPM4)	Off-target binding in in vitro pharmacology panel [1]	Current inhibition of hsTRPM4 L907A and S924A mutants versus wildtype [2]	Affinity in the L907A/S924A double mutant [3]	Activity on human TRPM4 (human TRPM4 [5])	Protective effect in excitotoxicity assay ([6]; glutamate-stimulated primary mouse neuronal cultures)	Compound toxicity in neuronal cultures ([6]; primary mouse neuronal cultures)	Mitochondrial membrane potential (ΔΨm), TMRE / MitoTracker ratio [7]	IC50 (human TRPM4 [8]) [µM]
1.4	0.3	1.1	1.3	0.9	0.5	O=C(CCc1ccccc1)Nc1ccc(Br)cc1C(=O)O [CMP233]	highly effective in both species; also recorded: active on both species	no off-target binding	significantly reduced current inhibition in at least one hsTRPM4 mutant variant	completely abolished	highly effective in both species; also recorded: active on both species				
						COc1cccc(-c2ccccc2NCc2nc3ccccc3o2)c1 [CMP312]	reduced activity on mouse TRPM4 compared to human TRPM4; also recorded: significantly less effective on mouse TRPM4		significantly reduced current inhibition in at least one hsTRPM4 mutant variant	completely abolished	almost completely blocked	potent protective effects	non-toxicity	mitigated the glutamate-induced decrease in ΔΨm	4.87
